Assay results published in patent EP0329225A2, “Acetylenic esters” (MERCK & CO. INC., priority 1988, dated 1989).
Like-named read-outs stand apart in the source and are kept apart here.

Molecular target: T1, Acetoacetyl-coenzyme A thiolase (Rattus norvegicus, UniProt Q5XI22)
T1 construct: prepared from the livers of Sprague Dawley rats treated in the diet for one week with 0.075% lovastatin to induce the enzyme; from tissue; host or cells: liver of Sprague Dawley rats fed lovastatin
Test: Acetoacetyl-coenzyme A thiolase inhibition (coupled spectrophotometric assay, NADH oxidation at 340 nm)
Assay type: biochemical, Sprague Dawley rats
Experimental: Acetoacetyl-coenzyme A thiolase was prepared from the livers of Sprague Dawley rats treated in the diet for one week with 0.075% lovastatin to induce the enzyme. Acetoacetyl-coenzyme A thiolase was purified through the DEAE-cellulose step essentially as described by Mehrabian et al., J. Biol. Chem., 261, 16249-16255 (1986), but modified slightly by carrying out the 30-50% ammonium sulfate precipitation of the enzyme and a dialysis before the DEAE-cellulose step. The 0.06 M eluate described by Mahrabian et al. contained the acetoacetyl-coenzyme A thiolase. The isolate was concentrated by ammonium sulfate precipitation, dissolved in the buffer used for elution, and stored at -70°C.
Inhibition of acetoacetyl coenzyme A thiolase was measured by coupling the formation of acetoacetyl-coenzyme A to its subsequent reduction of β-hydroxybutyryl-coenzyme A dehydrogenase to β-hydroxybutyryl-coenzyme A and monitoring the resultant oxidation of NADH with a spectrophotometer set at 340 nm. Mixtures of 0.016 units of β-hydroxybutyryl-coenzyme A dehydrogenase, 16.2 µg of acetoacetyl coenzyme A thiolase, and test quantities of the test compounds dissolved in dimethyl sulfoxide and water to bring to final volume were incubated with 71.4 mM Tris-HCl (pH 7.5). 0.71 mM EDTA, 10.7 mM magnesium chloride, 0.53 mM dithiothreitol, 0.21 mM NADH (total volume of 0.140 ml) until a stable base line was obtained. Reaction was initiated by addition of 10 µl of acetoacetyl-coenzyme A, giving a concentration of 2.85 mM. Reaction was measured at room temperature for a time period necessary to produce a measurable reaction rate. An IC₅₀, the concentration that inhibits 50% of the acetoacetyl-coenzyme A thiolase activity, was determined for each test compound. The IC₅₀'s for representative compounds of this invention are listed in Table I. The IC₅₀ of 5-(1-hydroxy-2,4,6-heptatriynyl)-2-oxo-1,3-dioxolane-4-heptanoic acid has been reported as 1 x 10⁻⁸ M. See U.S. Patent Application Serial No. 07/053,973, filed May 26, 1987.

[1] = enzyme from livers of lovastatin-treated rats, room temperature, pH 7.5, read-out: IC₅₀

T1 sequence (Q5XI22 whole entry): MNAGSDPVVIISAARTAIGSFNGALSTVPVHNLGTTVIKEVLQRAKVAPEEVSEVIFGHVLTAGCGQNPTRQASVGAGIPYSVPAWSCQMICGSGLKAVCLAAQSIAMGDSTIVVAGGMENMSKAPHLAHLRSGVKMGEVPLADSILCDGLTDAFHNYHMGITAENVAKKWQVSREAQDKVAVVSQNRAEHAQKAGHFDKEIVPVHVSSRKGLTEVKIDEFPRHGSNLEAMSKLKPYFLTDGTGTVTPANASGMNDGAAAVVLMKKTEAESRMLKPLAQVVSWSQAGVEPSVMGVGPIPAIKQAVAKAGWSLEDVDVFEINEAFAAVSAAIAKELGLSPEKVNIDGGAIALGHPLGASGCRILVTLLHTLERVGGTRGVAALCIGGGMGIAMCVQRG

| IC50 [1] [µM] | Structure (SMILES) | IC50 [µM] |
| --- | --- | --- |
| 0.15 | C#CC#CC#C[C@@H](O)[C@@H](O)[C@@H](O)CCCCCCC(=O)O [Ex. 1, 8(S),9(S),10(R)-Trihydroxy-11,13,15-hexadecatriynoic acid] | – |
| 38 | C#CC#CC#C[C@@H](O)[C@@H](O)[C@@H](O)CCCCCCC(=O)OC [Ex. 2, 8(S),9(S),10(R)-Trihydroxy-11,13,15-hexadecatriynoic acid, methyl ester] | – |
| – | COC(=O)CCCCCCCCC(O)C#CC#CC#C[Si](C)(C)C (stereo not drawn) [Ex. 3, 10-Hydroxy-16-(trimethylsilyl)-11,13,15-hexadecatriynoic acid, methyl ester] | 0.017 |
| 0.024 | C#CC#CC#CC(O)CCCCCCCCC(=O)OC (stereo not drawn) [Ex. 4, 10-Hydroxy-11,13,15-hexadecatriynoic acid, methyl ester] | – |
| – | COC(=O)CCCCCCCCC(O)C#CC#C[Si](C)(C)C (stereo not drawn) [Ex. 5, 10-Hydroxy-14-(trimethylsilyl)-11,13-tetradecadiynoic acid, methyl ester] | > 62 |
| 26 | C#CC#CC(O)CCCCCCCCC(=O)OC (stereo not drawn) [Ex. 6, 10-Hydroxy-11,13-tetradecadiynoic acid, methyl ester] | – |
